The values that follow come from patent US8575197B2, “Pyrolinone derivative and pharmaceutical composition comprising the same” (Shionogi & Co., Ltd., priority 2008, dated 2013).

Chain of human P2X3 receptor (P56373 whole entry): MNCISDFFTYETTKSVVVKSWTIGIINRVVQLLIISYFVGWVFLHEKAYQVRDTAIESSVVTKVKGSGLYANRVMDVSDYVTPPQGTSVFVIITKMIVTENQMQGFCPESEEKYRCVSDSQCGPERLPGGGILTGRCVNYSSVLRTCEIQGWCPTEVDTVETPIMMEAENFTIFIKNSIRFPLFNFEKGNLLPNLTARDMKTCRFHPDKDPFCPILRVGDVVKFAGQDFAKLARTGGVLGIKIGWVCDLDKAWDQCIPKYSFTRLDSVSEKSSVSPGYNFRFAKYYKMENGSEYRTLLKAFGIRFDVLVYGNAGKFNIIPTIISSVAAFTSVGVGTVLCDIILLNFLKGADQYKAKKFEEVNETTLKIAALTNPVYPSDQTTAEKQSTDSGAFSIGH

The assay has as its target human P2X3 receptor (Homo sapiens (Human), UniProt P56373). Kind of assay: P2X3 receptor inhibition, ATP-evoked Fluo-3 calcium fluorescence (FDSS 3000). The assay is classed as cell-based. Particulars: C6BU-1 cell transfected with human P2X3 receptor gene; ATP-evoked Fluo-3 fluorescence. The essentials:
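C6BU-1 cells stably transfected with human P2X3, loaded with 4 μM Fluo-3-AM for 1 h at 37 °C in HEPES buffer pH 7.5 with probenecid. Compound added 5 min before 40 nM ATP solution; fluorescence followed 3 min. IC50 from ratio of peak post-ATP to baseline fluorescence.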
As for `CCN(C)C(=O)c1ncccc1C1C(C(=O)CC(C)C)=C(O)C(=O)N1c1ccc(-c2ccc(C)s2)cc1` (centres unmarked) [Compound I-575], the half-maximal inhibitory concentration (IC50) amounted to 252 nM.

On to `Cc1ccc(-c2ccc(N3C(=O)C(O)=C(C(=O)CC(C)C)C3c3cccnc3C(=O)NN(C)C)cc2)s1` (centres unmarked) [Compound I-576], for which the 50% inhibitory concentration (IC50) came out at 237 nM.

For `Cc1ccc(-c2ccc(N3C(=O)C(O)=C(C(=O)CC(C)C)C3c3cccnc3C(=O)NCC#N)cc2)s1` (centres unmarked) [Compound I-577], the half-maximal inhibitory concentration (IC50) was 47 nM. `Cc1ccc(-c2ccc(N3C(=O)C(O)=C(C(=O)CC(C)C)C3c3cccnc3C(=O)NC(C)C)cc2)s1` (centres unmarked) [Compound I-578]: the IC50 amounted to 386 nM. With `Cc1ccc(-c2ccc(N3C(=O)C(O)=C(C(=O)CC(C)C)C3c3cccnc3C(=O)N3CCCC3)cc2)s1` (centres unmarked) [Compound I-579], the IC50 is 429 nM. As for `COCCNC(=O)c1ncccc1C1C(C(=O)CC(C)C)=C(O)C(=O)N1c1ccc(-c2ccc(C)s2)cc1` (centres unmarked) [Compound I-581], the figure is 466 nM; as for `COCCN(C)C(=O)c1ncccc1C1C(C(=O)CC(C)C)=C(O)C(=O)N1c1ccc(-c2ccc(C)s2)cc1` (centres unmarked) [Compound I-582], 359 nM.

Take `Cc1ccc(-c2ccc(N3C(=O)C(O)=C(C(=O)CC(C)C)C3c3cccnc3C(=O)NCCN(C)C)cc2)s1` (centres unmarked) [Compound I-583]: the half-maximal inhibitory concentration (IC50) turned out to be 10 nM. Take `Cc1cc(-c2ccc(N3C(=O)C(O)=C(C(=O)C(C)C)C3c3ccccc3C(=O)N(C)CCO)cc2)cs1` (centres unmarked) [Compound I-584]: the IC50 is 167 nM. For the molecule `Cc1ccc(-c2ccc(N3C(=O)C(O)=C(C(=O)C(C)C)C3c3ccccc3C(=O)N(C)CCO)cc2)o1` (centres unmarked) [Compound I-585], the concentration for half-maximal inhibition (IC50) came out at 157 nM. For `COCCN(C)C(=O)c1ccccc1C1C(C(=O)C(C)C)=C(O)C(=O)N1c1ccc(-c2ccc(C)o2)cc1` (centres unmarked) [Compound I-586], the half-maximal inhibitory concentration (IC50) came out at 254 nM. `C/N=C1/CC(C)(C)C(=O)OC2=C1C(c1ccccc1OC)N(c1ccc(-c3ccsc3)cc1)C2=O` (centres unmarked) [Compound I-587]: the IC50 was 374 nM. The result for `CC(C)C(=O)C1=C(O)C(=O)N(c2ccc(-c3ccon3)cc2)C1c1ccccc1OCC1CC1` (centres unmarked) [Compound I-588] reads 29 nM; that for `CSc1ccc(N2C(=O)C(O)=C(C(=O)C(C)C)C2c2ccccc2OCC2CC2)cc1` (centres unmarked) [Compound I-589], 32 nM; that for `CC(C)C(=O)C1=C(O)C(=O)N(c2ccc(-c3ccon3)cc2)C1c1ccccc1OCC1CCOCC1` (centres unmarked) [Compound I-590], 28 nM.

Take `CSc1ccc(N2C(=O)C(O)=C(C(=O)C(C)C)C2c2ccccc2OCC2CCOCC2)cc1` (centres unmarked) [Compound I-591]: the IC50 was 31 nM.

For the molecule `Cc1nc(-c2ccc(N3C(=O)C(O)=C(C(=O)C(C)C)C3c3ccccc3CCC(N)=O)cc2)no1` (centres unmarked) [Compound I-592], the IC50 was 827 nM. For the molecule `CNC(=O)CCc1ccccc1C1C(C(=O)C(C)C)=C(O)C(=O)N1c1ccc(-c2noc(C)n2)cc1` (centres unmarked) [Compound I-593], the IC50 is 811 nM. For the molecule `Cc1nc(-c2ccc(N3C(=O)C(O)=C(C(=O)C(C)C)C3c3ccccc3CCC(=O)NC(C)C)cc2)no1` (centres unmarked) [Compound I-594], the IC50 amounted to 715 nM.

As to `Cc1ccc(-c2ccc(N3C(=O)C(O)=C(C(=O)C(C)C)C3c3ccccc3N3CCCC3=O)cc2)s1` (centres unmarked) [Compound I-597], the 50% inhibitory concentration (IC50) worked out at 668 nM. Consider `Cc1cc(-c2ccc(N3C(=O)C(O)=C(C(=O)C(C)C)C3c3ccccc3N3CCCC3=O)cc2)cs1` (centres unmarked) [Compound I-598], for which the IC50 was 785 nM. As for `CCCc1ccc(N2C(=O)c3[nH]nc(C(C)(C)C)c3C2c2ccccc2OC)cc1` (centres unmarked) [II-001], the figure is 104 nM; as for `COc1ccccc1C1c2c(C(C)(C)C)n[nH]c2C(=O)N1c1ccc(OC(C)C)cc1` (centres unmarked) [II-002], 217 nM. Take `COc1ccccc1C1c2c(C(C)(C)C)n[nH]c2C(=O)N1c1ccc(C(C)(C)C)cc1` (centres unmarked) [II-003]: the IC50 was found to be 140 nM. As for `COc1ccccc1C1c2c(C(C)(C)C)n[nH]c2C(=O)N1c1ccc(SC(F)(F)F)cc1` (centres unmarked) [II-004], the figure is 378 nM; as for `CC(C)(C)c1n[nH]c2c1C(c1cccc3c1OCO3)N(c1ccc(-c3ccon3)cc1)C2=O` (centres unmarked) [II-006], 245 nM.

Broadly, the IC50 is the concentration that inhibits the measured activity by half.
